Measured values taken from patent publication US4684644A, “Basic monocarboxyamide derivatives of actagardine having antibiotic activity and compositions thereof” (Gruppo Lepetit S.p.A., priority 1985, dated 1987).
Read-outs that look alike come from different tables or passages of the source.

Tests used:
S. bovis D L 1325 = assay: In vitro antibacterial activity (MIC), S. bovis D L 1325; type: cell-based; conditions: S. bovis D L 1325, clinical isolate; 2% bovine serum
Procedure: (§1) Minimal inhibitory concentration (MIC) are determined by the twofold serial dilution method in Brain heart infusion broth (Difco); it is supplemented with 2% bovine serum when streptococci are tested. The inoculum size is about 10^3 colony units per ml (CFU/ml). The MIC is defined as the lowest concentration which prevents visible growth after overnight incubation at 37° C. The influence of serum is determined on S. aureus Tour by adding 30% bovine serum to the medium. […] The antimicrobial activities of the compounds of the invention in comparison with reference compound (actagardine) are reported in the following Table IV:
(§2) ^(3) Clinical isolates.

S. aureus TOUR = assay: In vitro antibacterial activity (MIC), S. aureus TOUR; type: cell-based
Procedure: as §1, with “The inoculum size is about 10^3 colony units per ml (CFU/ml).” left out
^(2) In the presence of 30% bovine serum

S. salivarius L 1323 = assay: In vitro antibacterial activity (MIC), S. salivarius L 1323; type: cell-based; conditions: S. salivarius L 1323, clinical isolate; 2% bovine serum
Procedure: as §1, §2

S. sanguis H L 1324 = assay: In vitro antibacterial activity (MIC), S. sanguis H L 1324; type: cell-based; conditions: S. sanguis H L 1324, clinical isolate; 2% bovine serum
Procedure: as §1, §2

S. pyogenes C 203 [1] = assay: In vivo test in mice experimentally infected with S. pyogenes C 203; conditions: mice infected i.p. with S. pyogenes C 203; s.c. once a day for three days; survival on 10th day
Procedure: (§3) The antimicrobial activity of the compounds of the invention is also confirmed in in vivo test in mices experimentally infected with S. pyogenes or S. pneumoniae. The experiments are conducted essentially as described by R. Pallanza et al., J. Antimicrob. Chemother. 11, 419 (1983).
(§4) The experimental infection was induced in mice by intraperitoneally administering a suspension of the test pathogens. Inocula had been adjusted so that the untreated animals died of septicemia within 48 h. Animals were treated subcutaneously with the test compound once a day for three days starting about 30 min after infection.
(§5) The ED50 value was calculated on the 10th day by the method of Spearman and Karber (D. J. Finney "Statistical Method in Biological Assay", Griffin, page 524, 1952) on the basis of the percentage of survival at each dose.

S. pneumoniae UC 41 = assay: In vitro antibacterial activity (MIC), S. pneumoniae UC 41; type: cell-based; conditions: 2% bovine serum, ~10^3 CFU/ml
Procedure: as §1, with “IV: […]” for “IV:”

S. mitis L 1320 = assay: In vitro antibacterial activity (MIC), S. mitis L 1320; type: cell-based; conditions: S. mitis L 1320, clinical isolate; 2% bovine serum
Procedure: as §1, §2

S. pyogenes C 203 [2] = assay: In vitro antibacterial activity (MIC), S. pyogenes C 203; type: cell-based; conditions: 2% bovine serum, ~10^3 CFU/ml
Procedure: as §1, with “IV: […]” for “IV:”

S. faecalis D L 1321 = assay: In vitro antibacterial activity (MIC), S. faecalis D L 1321; type: cell-based; conditions: S. faecalis D L 1321, clinical isolate; 2% bovine serum
Procedure: as §1, §2

[3] = Acid-base titration in MCS:H2O (pK of basic functions); type: physicochemical; conditions: MCS:H2O 4:1 (v/v)
Procedure: ^(2) Acid-base titrations were carried out in both aqueous
[methylcellosolve (MCS): water 4:1 (v/v)] and nonaqueous [pyridine or
acetic acid] solvents. The pKMCS values (pK2) of the additional
basic functions were determined in MCS:H2 O 4:1 (v/v) solution by
titration of the compounds with 0.01 N Na OH. The presence of the free
amino group of actagardine (pKMCS 6.3) in the derivatives, except
compound XIII, was confirmed by titration with 0.01 N HCl. Compound XIII
equivalent weights (E W) were obtained by titration with either
hydroxytetrabutylamine (HTBA) in pyridine or perchloric acid (HClO4)
actagardine (pKMCS 6.3) unmodified. Titration in MCS:H2 O 4:1

S. pneumoniae UC41 = assay: In vivo test in mice experimentally infected with S. pneumoniae UC41; conditions: mice infected i.p. with S. pneumoniae UC41; s.c. once a day for three days; survival on 10th day
Procedure: as §3, §4, §5

[4] = Partition coefficient (log P) between n-octanol and water; type: physicochemical
Procedure: ^(3) Partition coefficients (log P) were determined between noctanol
and water. The concentration of the compounds in each phase was determine
spectrophotometrically (UV).
^(6) 0.1 M acetate buffer pH 3.0.
is log P between noctanol and 0.1 M phosphate buffer pH 7.3.

Solubility in water = conditions: for Solubility in water, pH 4.0 / Solubility in water, pH 7.3: approximate values
S. viridans L 1322 = assay: In vitro antibacterial activity (MIC), S. viridans L 1322; type: cell-based; conditions: S. viridans L 1322, clinical isolate; 2% bovine serum
Procedure: as §1, §2

S. pyogenes C 203 [5] = assay: Bactericidal activity against growing cells of S. pyogenes C 203; type: cell-based; conditions: 10 times the MIC, Todd-Hewitt broth, 37° C.
Procedure: The antibacterial activity of compound III (a and b) was compared with that of actagardine against growing cells of S. pyogenes C 203. […] For compound III, this level of killing action was obtained also at a dose equal to the MIC (0.4 ug/ml). This comparison was carried out on Todd-Hewitt broth(s) containing compound III and actagardine at concentrations equal to or multiple of the MIC which were inoculated with growing cells of S. pyogenes C 203 (~10^6 CFU/ml). The cultures were incubated at 37° C. with shaking and viable cells were counted at intervals.

gram-positive organisms = conditions: in vitro and in vivo; cited from earlier work
[6] = n-octanol/0.1 M acetate buffer pH 3.0
[7] = in the presence of 30% bovine serum

| Substance | MIC (S. bovis D L 1325) [µg/mL] | MIC (S. aureus TOUR; inoculum 10^3 CFU/ml) [µg/mL] | MIC (S. salivarius L 1323) [µg/mL] | MIC (S. sanguis H L 1324) [µg/mL] | ED50 (S. pyogenes C 203 [1]) [mg/kg] | MIC (S. pneumoniae UC 41) [µg/mL] | MIC (S. mitis L 1320) [µg/mL] | MIC (S. pyogenes C 203 [2]) [µg/mL] | MIC (S. faecalis D L 1321) [µg/mL] | Partition Coeff. (log P), CH3(CH2)7OH/H2O, pH 3 [4, 6] | Solubility in water, pH 4.0 (Solubility in water) [mg/ml] | Solubility in water, pH 7.3 (Solubility in water) [mg/ml] | MIC (S. aureus TOUR; [7]) [µg/mL] | MIC (S. aureus TOUR; inoculum 10^6 CFU/ml) [µg/mL] | MIC (S. viridans L 1322) [µg/mL] | other results |
| --- | --- | --- | --- | --- | --- | --- | --- | --- | --- | --- | --- | --- | --- | --- | --- | --- |
| N-ethyl actagardine 3,3-dimethylamino-1-propylamide monocarboxamide [Compound XIII] | 25 | 50 | 0.8 | 50 | 0.23 | 12.5 | 3.1 | 0.8 | 100 |  |  |  |  |  |  |  |
| actagardine 3,3-dimethylamino-1-propylamide monocarboxamide, hydrochloride [IIIb] |  |  |  |  | 0.47 |  |  |  |  | -1.644 | 600 | 200 |  |  |  | pk2 (MCS/H2O) ([3]; pKMCS of additional basic function, titration with 0.01 N NaOH): 9.2; ED50 (S. pneumoniae UC41): 3.5 mg/kg |
| actagardine N-(2-aminoethyl)-1,2-ethanediamine monocarboxamide [IV] | 25 | 50 | 0.8 | 50 | 0.62 | 12.5 | 3.1 | 0.8 | 100 |  |  |  | 12.5 | 50 | 25 | Solubility in water, pH 4.0: 100 mg/ml; Partition Coeff. (log P), CH3(CH2)7OH/H2O, pH 3 ([4]; 0.1 m acetate buffer, pH 3): -1.353; Partition Coeff. (log P), CH3(CH2)7OH/H2O, H2O ([4]; distilled water): -0.680 |
| actagardine [reference compound] | 100 | 25 | 3.1 | 100 | 0.81 | 25 | 12.5 | 1.6 | 100 | 0.357 | < 10 | 70 | 25 | 50 | 100 | pKMCS of the free amino group of actagardine ([3]; titration with 0.01 N HCl): 6.3; killing effect (S. pyogenes C 203 [5]; 24 h): 99.9%; killing effect (S. pyogenes C 203 [5]; after 5 h of incubation): 99%; antimicrobial activity (in words) (gram-positive organisms): antimicrobial in vitro and in vivo activity against gram-positive organisms; log P between n-octanol and 0.1 M phosphate buffer pH 7.3 ([4]; n-octanol/0.1 M phosphate buffer pH 7.3): -0.545; solubility in water (in words) (Solubility in water; acid form): not soluble in water |
